Results on one compound are retold here after ChEMBL document CHEMBL5325488, “Discovery of SMD-3040 as a Potent and Selective SMARCA2 PROTAC Degrader with Strong in vivo Antitumor Activity” (J Med Chem, 2023).

Data set [1] deals with T1, von Hippel-Lindau disease tumor suppressor/SWI/SNF-related matrix-associated actin-dependent regulator of chromatin subfamily A member 4 (Homo sapiens, UniProt P51532+P40337). As to the kind of experiment: PROTAC activity at VHL/C-terminal HiBiT fused SMARCA4 in human HeLa cells assessed as induction of SMARCA4 degradation at 0.001 to 10 uM by Nano-Glo HiBiT analysis. Conditions: dose 0.001-10 µM, time 1-48 hrs, TDE = time-dependent effect. Format: cell-based. (HiBiT is a short tag that completes a luciferase, so light tracks the accessible tagged protein.)

For data set [2], the target named is T2, von Hippel-Lindau disease tumor suppressor/SWI/SNF-related matrix-associated actin-dependent regulator of chromatin subfamily A member 2 (Homo sapiens, UniProt P51531+P40337). As to the kind of experiment: In vivo PROTAC activity at VHL/SMARCA2 in SCID mouse xenografted with human MV4-11 cells assessed as remaining activity in tumor at 50 mg/kg, iv administered as single dose measured after 2 hrs by Western blotting analysis (reference value: 100 +/- 15 % ). Format: ADME, organism-based. A general note: Xenograft models place foreign cells or tissue in a host animal.
Target sequence in this assay (P51531 whole entry): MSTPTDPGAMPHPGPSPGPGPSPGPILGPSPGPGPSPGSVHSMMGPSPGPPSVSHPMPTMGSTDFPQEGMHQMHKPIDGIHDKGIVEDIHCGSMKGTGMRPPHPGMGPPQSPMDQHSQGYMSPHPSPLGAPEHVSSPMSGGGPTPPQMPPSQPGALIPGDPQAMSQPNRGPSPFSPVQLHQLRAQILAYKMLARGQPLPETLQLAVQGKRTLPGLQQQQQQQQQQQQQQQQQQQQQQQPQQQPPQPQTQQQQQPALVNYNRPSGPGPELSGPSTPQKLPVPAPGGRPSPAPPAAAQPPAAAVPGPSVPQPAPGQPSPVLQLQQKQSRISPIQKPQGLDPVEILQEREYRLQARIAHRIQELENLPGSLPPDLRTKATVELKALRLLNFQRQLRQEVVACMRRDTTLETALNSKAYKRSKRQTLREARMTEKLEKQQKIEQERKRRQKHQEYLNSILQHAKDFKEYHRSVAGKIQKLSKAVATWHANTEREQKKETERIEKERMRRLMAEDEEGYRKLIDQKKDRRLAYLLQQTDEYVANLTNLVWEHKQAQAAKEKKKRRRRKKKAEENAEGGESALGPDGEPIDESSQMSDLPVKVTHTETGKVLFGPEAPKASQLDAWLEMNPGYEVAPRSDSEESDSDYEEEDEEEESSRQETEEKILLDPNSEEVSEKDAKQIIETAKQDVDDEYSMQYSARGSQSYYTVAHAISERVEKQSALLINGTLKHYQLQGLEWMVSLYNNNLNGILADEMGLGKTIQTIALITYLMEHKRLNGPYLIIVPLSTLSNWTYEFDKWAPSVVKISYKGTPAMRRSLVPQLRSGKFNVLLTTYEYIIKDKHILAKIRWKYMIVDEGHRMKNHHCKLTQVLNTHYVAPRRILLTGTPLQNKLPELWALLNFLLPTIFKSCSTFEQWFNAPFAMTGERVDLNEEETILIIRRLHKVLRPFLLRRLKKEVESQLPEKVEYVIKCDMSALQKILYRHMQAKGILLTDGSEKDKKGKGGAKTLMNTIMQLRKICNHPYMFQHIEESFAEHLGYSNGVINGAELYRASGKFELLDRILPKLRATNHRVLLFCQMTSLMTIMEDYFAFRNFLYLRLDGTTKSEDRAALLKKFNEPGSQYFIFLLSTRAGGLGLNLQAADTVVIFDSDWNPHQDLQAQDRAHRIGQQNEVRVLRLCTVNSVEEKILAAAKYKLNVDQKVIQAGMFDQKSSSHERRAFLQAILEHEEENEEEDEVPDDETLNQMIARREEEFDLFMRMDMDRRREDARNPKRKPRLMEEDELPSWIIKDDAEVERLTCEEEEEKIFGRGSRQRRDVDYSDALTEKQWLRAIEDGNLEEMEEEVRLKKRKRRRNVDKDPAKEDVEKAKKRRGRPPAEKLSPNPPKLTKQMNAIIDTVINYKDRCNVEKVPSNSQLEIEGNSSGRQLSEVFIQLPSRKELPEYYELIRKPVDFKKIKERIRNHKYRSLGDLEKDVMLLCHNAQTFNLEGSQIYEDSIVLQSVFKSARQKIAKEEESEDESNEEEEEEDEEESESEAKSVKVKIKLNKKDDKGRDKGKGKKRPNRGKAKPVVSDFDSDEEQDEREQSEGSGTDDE
Target sequence in this assay (P40337 whole entry): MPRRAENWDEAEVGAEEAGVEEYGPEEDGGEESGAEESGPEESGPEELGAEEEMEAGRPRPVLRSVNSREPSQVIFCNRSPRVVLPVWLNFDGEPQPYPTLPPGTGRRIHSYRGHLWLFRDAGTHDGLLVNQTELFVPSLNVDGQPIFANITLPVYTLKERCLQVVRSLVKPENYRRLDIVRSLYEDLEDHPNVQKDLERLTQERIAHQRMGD

Data set [3] has as its target T2, von Hippel-Lindau disease tumor suppressor/SWI/SNF-related matrix-associated actin-dependent regulator of chromatin subfamily A member 2. As to the kind of experiment: PROTAC activity at VHL/C-terminal HiBiT fused SMARCA2 in human HeLa cells assessed as induction of SMARCA2 degradation at 0.0001 to 1 uM incubated for 3 hrs by Nano-Glo HiBiT analysis relative to control. The settings on record: dose 0.0001-1 µM. It counts as cell-based.

Data set [4] has the same target. Put plainly: PROTAC activity at VHL/C-terminal HiBiT fused SMARCA2 in human HeLa cells assessed as induction of SMARCA2 degradation by measuring maximal efficacy at 0.0001 to 1 uM incubated for 24 hrs by Nano-Glo HiBiT analysis relative to control. Format: cell-based. Conditions: dose 0.0001-1 µM.
The target is the same in data set [5]. Put plainly: PROTAC activity at VHL/C-terminal HiBiT fused SMARCA2 in human HeLa cells assessed as induction of SMARCA2 degradation incubated for 1 to 48 hrs by Nano-Glo HiBiT analysis. It counts as cell-based. The settings on record: dose 0.001-10 µM, time 1-48 hrs.
The target of data set [6] is T1, von Hippel-Lindau disease tumor suppressor/SWI/SNF-related matrix-associated actin-dependent regulator of chromatin subfamily A member 4. Put plainly: PROTAC activity at VHL/C-terminal HiBiT fused SMARCA4 in human HeLa cells assessed as induction of SMARCA4 degradation incubated for 1 hr by Nano-Glo HiBiT analysis. It counts as cell-based.
Target sequence in this assay (P51532 whole entry, the tested form may be a part): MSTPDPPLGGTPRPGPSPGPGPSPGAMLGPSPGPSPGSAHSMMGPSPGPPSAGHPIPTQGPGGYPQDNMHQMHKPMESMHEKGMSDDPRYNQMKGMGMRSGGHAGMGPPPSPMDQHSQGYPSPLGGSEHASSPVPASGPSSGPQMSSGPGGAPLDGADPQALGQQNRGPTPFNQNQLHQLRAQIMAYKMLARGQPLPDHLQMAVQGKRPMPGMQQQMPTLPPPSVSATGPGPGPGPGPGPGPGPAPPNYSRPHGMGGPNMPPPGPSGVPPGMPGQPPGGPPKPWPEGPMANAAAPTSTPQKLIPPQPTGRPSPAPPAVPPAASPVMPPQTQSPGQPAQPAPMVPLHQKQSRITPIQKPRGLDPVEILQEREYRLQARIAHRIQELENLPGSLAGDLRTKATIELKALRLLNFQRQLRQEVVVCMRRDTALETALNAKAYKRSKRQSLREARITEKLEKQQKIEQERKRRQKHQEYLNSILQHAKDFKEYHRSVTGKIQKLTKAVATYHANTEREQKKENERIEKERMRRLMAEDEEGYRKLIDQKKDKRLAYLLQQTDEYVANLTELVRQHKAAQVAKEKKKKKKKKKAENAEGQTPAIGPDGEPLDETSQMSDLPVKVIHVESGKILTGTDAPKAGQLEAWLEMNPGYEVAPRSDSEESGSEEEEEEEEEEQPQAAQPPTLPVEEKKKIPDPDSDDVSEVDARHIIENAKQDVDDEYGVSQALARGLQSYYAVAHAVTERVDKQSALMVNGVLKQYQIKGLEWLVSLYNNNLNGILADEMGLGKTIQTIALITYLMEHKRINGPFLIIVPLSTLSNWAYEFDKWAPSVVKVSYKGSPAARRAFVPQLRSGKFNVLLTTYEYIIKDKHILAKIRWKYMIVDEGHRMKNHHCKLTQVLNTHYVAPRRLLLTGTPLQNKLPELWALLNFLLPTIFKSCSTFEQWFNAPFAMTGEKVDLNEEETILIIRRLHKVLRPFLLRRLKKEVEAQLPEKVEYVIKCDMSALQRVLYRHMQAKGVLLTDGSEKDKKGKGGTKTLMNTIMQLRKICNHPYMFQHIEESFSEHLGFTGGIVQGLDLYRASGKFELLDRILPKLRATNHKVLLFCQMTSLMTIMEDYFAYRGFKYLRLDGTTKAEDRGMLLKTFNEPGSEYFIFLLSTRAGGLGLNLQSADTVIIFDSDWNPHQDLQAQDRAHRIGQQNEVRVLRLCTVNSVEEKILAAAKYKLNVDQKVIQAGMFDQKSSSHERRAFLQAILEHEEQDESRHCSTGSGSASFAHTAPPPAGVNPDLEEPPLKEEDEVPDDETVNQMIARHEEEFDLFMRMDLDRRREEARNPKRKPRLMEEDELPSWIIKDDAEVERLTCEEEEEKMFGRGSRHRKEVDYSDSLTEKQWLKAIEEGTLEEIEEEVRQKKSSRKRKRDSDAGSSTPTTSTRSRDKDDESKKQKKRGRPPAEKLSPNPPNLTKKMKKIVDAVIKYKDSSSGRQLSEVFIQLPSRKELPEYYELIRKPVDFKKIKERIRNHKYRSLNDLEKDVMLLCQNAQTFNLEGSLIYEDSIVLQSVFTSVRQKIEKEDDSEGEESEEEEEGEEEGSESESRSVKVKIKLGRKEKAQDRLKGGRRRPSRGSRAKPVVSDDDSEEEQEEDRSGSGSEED
Target sequence in this assay (P40337 whole entry, the tested form may be a part): as the sequence (P40337 whole entry) above
A short description of data set [7]: Drug concentration in SCID mouse tumor xenografted with human MV4-11 cells at 50 mg/kg, iv measured after 48 hrs by LC-MS/MS method. Format: ADME, organism-based, Neoplasm. Conditions: read-out: Ct.
In data set [8] the target is T1, von Hippel-Lindau disease tumor suppressor/SWI/SNF-related matrix-associated actin-dependent regulator of chromatin subfamily A member 4. Put plainly: PROTAC activity at VHL/C-terminal HiBiT fused SMARCA4 in human HeLa cells assessed as induction of SMARCA4 degradation by measuring maximal efficacy at 0.001 to 10 uM incubated for 6 hrs by Nano-Glo HiBiT analysis relative to control. Format: cell-based. The settings on record: dose 0.001-10 µM.

Data set [9] shares this target. As to the kind of experiment: PROTAC activity at VHL/C-terminal HiBiT fused SMARCA4 in human HeLa cells assessed as induction of SMARCA4 degradation by measuring maximal efficacy at 0.001 to 10 uM incubated for 48 hrs by Nano-Glo HiBiT analysis relative to control. It counts as cell-based. The settings on record: dose 0.001-10 µM.
Data set [10] relates to NCI-H1693. As to the kind of experiment: Antiproliferative activity against SMARCA4-deficient human NCI-H1693 cells assessed as cell growth inhibition by measuring maximal efficacy measured after 7 days by WST-8 assay relative to control. Format: functional. Conditions: time 7 day. (In general: Tetrazolium assays rely on reduction of a dye to a coloured formazan, in cell work by metabolically active cells.)

Data set [11] addresses T1, von Hippel-Lindau disease tumor suppressor/SWI/SNF-related matrix-associated actin-dependent regulator of chromatin subfamily A member 4. Put plainly: In vivo PROTAC activity at VHL/SMARCA4 in SCID mouse xenografted with human MV4-11 cells assessed as reduction of SMARCA4 level in tumor at 50 mg/kg, iv administered as single dose measured after 48 hrs by Western blotting analysis. Format: ADME, organism-based. The arrangement: scale not given: the % may be the effect or the level left.
Target sequence in this assay (P51532 whole entry, the tested form may be a part): as the sequence (P51532 whole entry, the tested form may be a part) above
Target sequence in this assay (P40337 whole entry, the tested form may be a part): as the sequence (P40337 whole entry) above

For data set [12] the target is unchanged. As to the kind of experiment: PROTAC activity at VHL/C-terminal HiBiT fused SMARCA4 in human HeLa cells assessed as induction of SMARCA4 degradation by measuring maximal efficacy at 0.001 to 10 uM incubated for 1 hr by Nano-Glo HiBiT analysis relative to control. It counts as cell-based. Conditions: dose 0.001-10 µM.
The target of data set [13] is T2, von Hippel-Lindau disease tumor suppressor/SWI/SNF-related matrix-associated actin-dependent regulator of chromatin subfamily A member 2. As to the kind of experiment: In vivo PROTAC activity at VHL/SMARCA2 in SCID mouse xenografted with human MV4-11 cells assessed as reduction of SMARCA2 level in tumor at 50 mg/kg, iv administered as single dose measured after 6 hrs by Western blotting analysis. It counts as ADME, organism-based. Set-up: scale not given: the % may be the effect or the level left.
Target sequence in this assay (P51531 whole entry): as the sequence (P51531 whole entry) above
Target sequence in this assay (P40337 whole entry): as the sequence (P40337 whole entry) above

Data set [14] shares this target. As to the kind of experiment: In vivo PROTAC activity at VHL/SMARCA2 in SCID mouse xenografted with human NCI-H838 cells assessed as remaining activity in tumor at 50 mg/kg, iv administered as single dose measured after 48 hrs by Western blotting analysis (reference value: 100 +/- 7% ). It counts as functional, organism-based.
Data set [15] deals with T1, von Hippel-Lindau disease tumor suppressor/SWI/SNF-related matrix-associated actin-dependent regulator of chromatin subfamily A member 4. As to the kind of experiment: In vivo PROTAC activity at VHL/SMARCA4 in SCID mouse xenografted with human MV4-11 cells assessed as reduction of SMARCA4 level in tumor at 50 mg/kg, iv administered as single dose measured after 6 hrs by Western blotting analysis. It counts as ADME, organism-based. The arrangement: scale not given: the % may be the effect or the level left.
Target sequence in this assay (P51532 whole entry, the tested form may be a part): as the sequence (P51532 whole entry, the tested form may be a part) above
Target sequence in this assay (P40337 whole entry, the tested form may be a part): as the sequence (P40337 whole entry) above

For data set [16] the target is unchanged. Put plainly: In vivo PROTAC activity at VHL/SMARCA4 in SCID mouse xenografted with human MV4-11 cells assessed as reduction of SMARCA4 level in tumor at 50 mg/kg, iv administered as single dose measured after 2 hrs by Western blotting analysis. Format: ADME, organism-based. Set-up: scale not given: the % may be the effect or the level left.
Target sequence in this assay (P51532 whole entry, the tested form may be a part): as the sequence (P51532 whole entry, the tested form may be a part) above
Target sequence in this assay (P40337 whole entry, the tested form may be a part): as the sequence (P40337 whole entry) above
For data set [17] the target is unchanged. Put plainly: In vivo PROTAC activity at VHL/SMARCA4 in SCID mouse xenografted with human MV4-11 cells assessed as remaining activity in tumor at 50 mg/kg, iv administered as single dose measured after 72 hrs by Western blotting analysis (reference value: 100 +/- 15 % ). It counts as ADME, organism-based.
Target sequence in this assay (P51532 whole entry, the tested form may be a part): as the sequence (P51532 whole entry, the tested form may be a part) above
Target sequence in this assay (P40337 whole entry, the tested form may be a part): as the sequence (P40337 whole entry) above
The nature of data set [18]: Drug concentration in SCID mouse tumor xenografted with human MV4-11 cells at 50 mg/kg, iv measured after 96 hrs by LC-MS/MS method. Conditions: read-out: Ct. Format: ADME, organism-based, Neoplasm.
A short description of data set [19]: Drug concentration in SCID mouse plasma xenografted with human MV4-11 cells at 50 mg/kg, iv measured after 48 hrs by LC-MS/MS method. It counts as ADME, organism-based.
The test system of data set [20] is SK-MEL-28. As to the kind of experiment: Antiproliferative activity against human SK-MEL-28 cells expressing wild-type SMARCA2 assessed as cell growth inhibition measured after 7 days by WST-8 assay. The settings on record: SK-MEL-28, 168 h, time 7 day. Format: functional.
The target of data set [21] is T2, von Hippel-Lindau disease tumor suppressor/SWI/SNF-related matrix-associated actin-dependent regulator of chromatin subfamily A member 2. Put plainly: PROTAC activity at VHL/wild-type SMARCA2 in human SK-MEL-5 cells assessed as induction of SMARCA2 degradation incubated for 24 hrs by Western blotting analysis. Format: cell-based.
Target sequence in this assay (P51531 whole entry): as the sequence (P51531 whole entry) above
Target sequence in this assay (P40337 whole entry): as the sequence (P40337 whole entry) above
Data set [22] has the same target. As to the kind of experiment: PROTAC activity at VHL/wild-type SMARCA2 in human NCI-H838 cells assessed as induction of SMARCA2 degradation at 0.001 to 1000 nM incubated for 24 hrs by Western blotting analysis relative to control. Format: cell-based. Conditions: dose 0.001-1000 nM.
Data set [23] shares this target. As to the kind of experiment: In vivo PROTAC activity at VHL/SMARCA2 in SCID mouse xenografted with human MV4-11 cells assessed as remaining activity in tumor at 50 mg/kg, iv administered as single dose measured after 48 hrs by Western blotting analysis (reference value: 100 +/- 15 % ). It counts as ADME, organism-based.
Target sequence in this assay (P51531 whole entry): as the sequence (P51531 whole entry) above
Target sequence in this assay (P40337 whole entry): as the sequence (P40337 whole entry) above
Data set [24] relates to NCI-H1975. As to the kind of experiment: Antiproliferative activity against human NCI-H1975 cells expressing wild-type SMARCA2 assessed as cell growth inhibition measured after 7 days by WST-8 assay. It counts as functional. Conditions: NCI-H1975, 168 h, time 7 day.

In general, Emax refers to the size of the effect at its maximum, as opposed to the concentration needed. What is called DC50 is the concentration at which degradation of the target reaches its halfway point. As a reminder, the GI50 is the concentration at which growth is held to half of that of the control. Consider `Cc1ncsc1-c1ccc([C@H](C)NC(=O)[C@@H]2C[C@@H](O)CN2C(=O)[C@@H](NC(=O)[C@H]2CC[C@H](CN3CC4(CCC(n5cc(-c6cc(-c7ccccc7O)nnc6N)cn5)CC4)C3)CC2)C(C)(C)C)cc1`, for which the Activity result in data set [1] is “Tde”; in data set [2], 22%; in data set [5] it was “Dose-Dependent Effect”; in data set [11], 13%; in data set [13], 70%; in data set [14], 25%. In addition, the Activity in data set [15] is given as 17%; in data set [16] it was 7%; in data set [17], 91%; in [23], 17%. The Emax was determined as 79% in data set [3]; 90% in [4]; 49% in data set [8]; 68% in data set [9]; 20% in data set [12]; 90% in [22]. The half-maximal degradation concentration (DC50) is over 3.3 µM in data set [6] and 20 nM in data set [21]. For the same compound, the concentration at 48 h in [7] is 978 ng/g; in data set [19] it was 60.5 ng/mL. For the same compound, in data set [10], the Imax was 79%. In addition, the concentration at 96 h in [18] is 560 ng/g. Also, the GI50 in data set [20] and in data set [24] was over 10 µM in each case.
